According to US20200171056A1, “SULFONYLUREA COMPOUNDS IN THE TREATMENT OF DISEASE ASSOCIATED WITH UV-INDUCED DAMAGE” (CeMM - Forschungszentrum für Molekulare Medizin GmbH, priority 2017, published 2020):

Tests used:
[1] = test system: ΔXPA cells; assay: Short-term survival after UV irradiation (CellTiter-Glo); type: cell-based, human; conditions: for protective effect of ΔXPA cells against UV (cell viability): different concentrations for 6 hours, then 10 J/M^2 UV (FIG. 10A-C)
Description: A. Schematic representation of the experimental setup used to perform the high-throughput drug screen, where drugs were used at five-times maximal plasma concentration (CLOUD; CeMM library of unique drugs). B. Bubble plot displaying the drugs used plotted against cell viability. Light grey bubbles indicate wildtype (WT) cells, dark grey bubbles indicate XPA-deficient cells (ΔXPA). […] C. Chemical structure of acetohexamide. D. Dose-response curve of WT and ΔXPA cells treated with or without 0.5 mM acetohexamide for 6 hours, followed by UV irradiation. Survival was assessed after 3 days, using CellTiter-Glo. […] Error bars indicate SEM (n=3). E. Colony formation using the same conditions indicated in (D), where cells were kept in culture for 10 days following UV irradiation, following which they were fixed and stained.
A-C. Cell viability of ΔXPA cells treated with different concentrations of acetohexamide (aceto), gliclazide (GLC) and glimepiride (GLM) for 6 hours, followed by 10 J/M^2 of UV irradiation. D. Survival of WT and ΔXPA cells treated with or without 50 μM glibenclamide for 6 hours, followed by UV exposure. Survival was assessed after 3 days using CellTitre-Glo. E. Cell viability of ΔXPA cells treated with 10 μM of different derivatives of acetohexamide for 6 hours, followed by UV irradiation with 5 J/M^2.
(§1) For UV irradiation, cells were washed with PBS, trypsinized, counted and distributed in equal number then irradiated with different doses of UV as indicated. Finally, 1,000 cells were re-distributed into 96 well plates. After 72 hours, survival was measured using Cell Titer-Glo (Promega). Cells were irradiated with UVC using the UVP CX-2000 device (254 nm, Fisher Scientific).

[2] = test system: WT cells; assay: Cell viability of WT cells after UV exposure, comparison with antioxidant; type: cell-based, human; conditions: 30 μM NAC for 6 hours, then 30 J/M^2 UV, compared with 0.5 mM acetohexamide (FIG. 8E)
Experimental: A. WT and ΔXPA cells were either treated with DMSO or 0.5 mM acetohexamide for 6 hours. Cell cycle profiles were determined using propidium iodide (P1) staining followed by FACS analysis. B-D. Survival of WT HAP1 cells treated with either DMSO or 0.5 mM acetohexamide for 6 hours, followed by exposure to the indicated DNA damaging agents (MMC: mitomycin C; HU: hydroxyl urea; MMS: methyl methanesulfonate). Survival was assessed after 3 days using CellTitre-Glo. E. Cell viability of WT cells treated either with 0.5 mM acetohexamide or 30 μM N-acetylcysteine (NAC) for 6 hours, followed by 30 J/M^2 UV exposure.
as §1

Cc1ccc(S(=O)(=O)NC(=O)NN2CC3CCCC3C2)cc1 (stereo not shown) [gliclazide]
protective effect of ΔXPA cells against UV (cell viability) [1]: Only glimepiride showed a protective effect

CC(=O)N[C@@H](CS)C(=O)O [N-acetylcysteine]
alleviating UV-induced sensitivity (cell viability) [2]: very minor effect in alleviating UV-induced sensitivity compared to acetohexamide

CCC1=C(C)CN(C(=O)NCCc2ccc(S(=O)(=O)NC(=O)N[C@H]3CC[C@H](C)CC3)cc2)C1=O [glimepiride]
protective effect of ΔXPA cells against UV (cell viability) [1]: showed a protective effect

COc1ccc(Cl)cc1C(=O)NCCc1ccc(S(=O)(=O)NC(=O)NC2CCCCC2)cc1 [glibenclamide]
protective effect of ΔXPA cells against UV (survival) ([1]; 50 μM for 6 hours, then UV, survival after 3 days (FIG. 10D)): Only glimepiride showed a protective effect
